Data published in US7312248B2, “Control of parasites in animals by the use of novel trifluoromethanesulfonanilide oxime ether derivatives” (Schering-Plough Animal Health Corporation, priority 2004, dated 2007).
Like-named read-outs stand apart in the source and are kept apart here.

How the values were obtained:
Assay type in all cases: in vivo
[1] = test system: cat flea (Ctenocephalides felis); assay: whole plant or invertebrate; conditions: Ctenocephalides felis
Procedure, shortened: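 Adult C. felis (3-7 days post-emergence; 15 per flask, at least 4 replicates) exposed to a glass flask base dried 24 h after coating with compound in acetone at 1.26 μg/cm^2. Held at 25±1 °C, 75±5% humidity; mortality (immobile or unable to right) scored at 8, 24 and/or 48 h as percentage.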

Haemonchus contortus = Haemonchus contortus larvacidal (larval development) assay; conditions: 144 h, read-out: Haemonchus contortus LD99
Experimental: a) Haemonchus Contortus Larvacidal Assay:
The effect of compounds on larval development was determined in the assay described by Gill et al. (1995, International Journal of Parasitology 25:463-470). Briefly, in this assay, nematode eggs were applied to the surface of an agar matrix containing the test compound and then allowed to develop through to the L3, infective stage (6 days). The wells for each dilution of every compound (from highest to lowest concentration) were inspected to determine the well number corresponding to the lowest concentration at which development was inhibited in 99% of the nematode larvae present (LD99). Because well numbers correspond to a two-fold serial dilution of each compound, a titre (dilution factor) is generated as 2^n−1, where n is the well number. By dividing the highest concentration tested by the titre an LD99 value can be obtained, representing the concentration required to inhibit development in 99% of the nematode larvae present. The compounds supplied as solid and viscous liquids were dissolved in DMSO. Twelve serial one-half dilutions in DMSO solution were prepared from the stock solution, each of which was then diluted ⅕ with water. Aliquots (10 μl) of each dilution were transferred to the bioassay plates to give a final concentration range of 0.024 to 50 μg/ml.

[2] = test system: cat flea (Ctenocephalides felis); assay: Ctenocephalides felis adulticide assay: dose response (LC50); conditions: Laboratory 1 C data
Source text: c) Ctenocephalides felis Adulticide Assay: C. felis Dose Response
The purpose of this example was to determine the LC50 when cat fleas were contacted with a glass surface treated with sample compounds or formulations prepared as described above. Mortality of fleas was defined as follows: fleas were considered dead if they didn't move or were on their sides and unable to walk or right themselves. LC50: Lethal Concentration 50—concentration of glass surface treatment at which 50% of the cat fleas were killed. The test species was the cat flea (Ctenocephalides felis). The strain used was obtained from external suppliers as pupae and held in the laboratory under testing conditions until the adults had emerged. Fifteen (15) fleas were used in a minimum of four replicates for each dose level (total of 60 fleas per dose level). The insects were selected to be in the adult life stage, aged between 3 and 7 days post emergence.
The compounds to be tested were dissolved in acetone just prior to testing. Samples of compounds were stored in a refrigerator (5±1° C.) unless otherwise specified. During the mortality testing, the temperature was maintained at 25+1° C. Humidity was maintained at 75±5%. The base (area=159 mm^2) of a 100 mL glass Erlenmeyer (conical) flask provided the treatment surface. Flasks were pretreated with Coatasil™ glass treatment to maximise bio-availability of test compounds by preventing them from binding to the glass surface.
Six dose levels (concentrations) of test sample, in the form of a serial dilution, were derived from a pilot study and covered a range that produced very low to very high mortality. The base of the 100 mL Erlenmeyer flask was treated with 0.5 mL of test sample in acetone and gently swirled. This volume was sufficient to cover the base of the flask. Flasks were left to dry for 24 hours before flea exposure. Adult cat fleas were lightly anaesthetised by cooling and then placed into a sorting chamber, which allowed fleas to revive and jump into the Erlenmeyer flasks. Fifteen (15)adult cat fleas were collected in each flask. The top of the flasks were then covered in Parafilm™ and small holes made to allow gas exchange. A 0.5 mL volume of acetone was applied to the base of an Erlenmeyer flask and the testing proceeded in the same manner described above. Cat fleas in the treatment containers were held under testing conditions for 24 hours. Mortality resulting from the treatments was recorded at 8 and 24 hours.

[3] = 8 h, read-out: C. felis Mortality (%) 8 h, 8 h, Laboratory 1 A data
[4] = 24 h, read-out: C. felis Mortality (%) 24 h, 24 h, Laboratory 1 A data
[5] = 8 h, read-out: Ctenocephalides felis Mortality (%) 8 h
[6] = 24 h, read-out: Ctenocephalides felis Mortality (%) 24 h
[7] = lowest concentration inhibiting development in 99% of larvae, eggs to L3, 6 days, range 0.024 to 50 μg/ml

| Structure (SMILES) | mortality at 1.26 µg/cm2, 1.26 µg/cm2 [1, 3] [%] | IC99 (Haemonchus contortus) [µg/mL] | mortality at 1.26 µg/cm2, 1.26 µg/cm2 [1, 4] [%] | further results |
| --- | --- | --- | --- | --- |
| CC/C(=N\OCc1c(F)c(F)c(F)c(F)c1F)c1cc(Cl)ccc1NS(=O)(=O)C(F)(F)F [Compound 77] | 3 | 2.5 | – | – |
| O=S(=O)(Nc1ccc(Cl)cc1/C(=N/OCc1ccc(C(F)(F)F)cc1C(F)(F)F)c1ccccc1)C(F)(F)F [Compound 78] | 21 | 1.8 | – | – |
| CC/C(=N\OCc1ccc(F)cc1F)c1cc(Cl)ccc1NS(=O)(=O)C(F)(F)F [Compound 84] | 95 | 3.3 | – | – |
| CC/C(=N\OC/C=C/c1ccccc1)c1cc(Cl)ccc1NS(=O)(=O)C(F)(F)F [Compound 85] | 6 | 1.6 | – | – |
| O=S(=O)(Nc1ccc(Cl)cc1/C(=N/OCc1ccc(Cl)c(Cl)c1)c1ccccc1)C(F)(F)F [Compound 87, N-{4-chloro-2-[(3,4-dichlorobenzyloxyimino)phenylmethyl]phenyl}trifluoromethanesulfonamide] | 5 | 1.3 | – | – |
| CC/C(=N\OCc1ccc(C#N)cc1)c1cc(Cl)ccc1NS(=O)(=O)C(F)(F)F [Compound 91] | – | 13 | 67 | – |
| CCC/C(=N\OCc1ccc(C(F)(F)F)cc1)c1cc(Cl)ccc1NS(=O)(=O)C(F)(F)F [Compound 92] | 36 | 1.6 | – | – |
| O=S(=O)(Nc1ccc(Cl)cc1/C=N/OCc1ccc(Br)cc1)C(F)(F)F [Compound 96] | – | 0.7 | 21 | – |
| O=S(=O)(Nc1ccc(Cl)cc1/C=N/OCc1ccc(Cl)c(Cl)c1)C(F)(F)F [Compound 97, N-{4-chloro-2-[(3,4-dichlorobenzyloxyimino)methyl]phenyl}trifluoromethanesulfonamide] | – | 0.6 | 42 | – |
| CCC/C(=N\OCc1ccc(C(F)(F)F)cc1C(F)(F)F)c1cc(Cl)ccc1NS(=O)(=O)C(F)(F)F [Compound 98] | 79 | 1.4 | – | – |
| CC(C)/C(=N\OCc1ccc(C(F)(F)F)cc1)c1cc(Cl)ccc1NS(=O)(=O)C(F)(F)F [Compound 108] | 12 | 1.3 | – | – |
| CC/C(=N\OCc1cc(Br)cc(Br)c1)c1cc(Cl)ccc1NS(=O)(=O)C(F)(F)F [Compound 109] | 3 | 2.8 | – | – |
| CCC/C(=N\OCC1CCCCC1)c1cc(Cl)ccc1NS(=O)(=O)C(F)(F)F [Compound 111] | – | 5 | – | mortality at 1.26 µg/cm2, 1.26 µg/cm2 ([1]; 8 h, read-out: C. felis Mortality (%) 8 h, 8 h, Laboratory 2 B data): 9%; mortality at 1.26 µg/cm2, 1.26 µg/cm2 ([1]; 24 h, read-out: C. felis Mortality (%) 24 h, 24 h, Laboratory 2 B data): 70% |
| CC(C)/C(=N\OCc1ccc(C(F)(F)F)cc1C(F)(F)F)c1cc(Cl)ccc1NS(=O)(=O)C(F)(F)F [Compound 116, N-{2-[1-(2,4-bistrifluoromethylbenzyloxyimino)-2-methylpropyl]-4-chlorophenyl}trifluoromethanesulfonamide] | 10 | 0.9 | – | – |
| C/C(=N\OCc1cc(C(F)(F)F)ccc1C(F)(F)F)c1cc(Cl)ccc1NS(=O)(=O)C(F)(F)F [Compound 120, N-{2-[1-(2,5-bistrifluoromethylbenzyloxyimino)ethyl]-4-chlorophenyl}trifluoromethanesulfonamide] | 2 | 0.5 | – | – |
| C/C(=N\OCc1ccc(C(F)(F)F)cc1C(F)(F)F)c1cc(F)ccc1NS(=O)(=O)C(F)(F)F [Compound 121] | 3 | 0.6 | – | – |

| Structure (SMILES) | mortality at 1.26 µg/cm2, 1.26 µg/cm2 [1, 3] [%] | IC99 (Haemonchus contortus) [µg/mL] | mortality at 1.26 µg/cm2, 1.26 µg/cm2 [1, 4] [%] | further results |
| --- | --- | --- | --- | --- |
| C/C(=N\Oc1ccccc1)c1cc(Cl)ccc1NS(=O)(=O)C(F)(F)F [Compound 125] | 6 | 5.5 | – | – |
| CC/C(=N\Oc1cccc(C(F)(F)F)c1)c1cc(Cl)ccc1NS(=O)(=O)C(F)(F)F [Compound 133] | – | 0.9 | 71 | – |
| C/C(=N\Oc1ccc(C#N)cc1)c1cc(Cl)ccc1NS(=O)(=O)C(F)(F)F [Compound 135] | – | 3 | 47 | – |
| CC/C(=N\Oc1ccc(C#N)cc1)c1cc(Cl)ccc1NS(=O)(=O)C(F)(F)F [Compound 136] | – | 2.5 | 74 | – |
| C/C(=N\Oc1ccc(Br)cc1)c1cc(Cl)ccc1NS(=O)(=O)C(F)(F)F [Compound 137] | – | 0.4 | 91 | – |
| CC/C(=N\Oc1ccc(Br)cc1)c1cc(Cl)ccc1NS(=O)(=O)C(F)(F)F [Compound 138] | – | 1.7 | 78 | – |
| C/C(=N\Oc1ccc(Cl)c(Cl)c1)c1cc(Cl)ccc1NS(=O)(=O)C(F)(F)F [Compound 140] | – | 0.7 | 71 | – |
| C/C(=N\OC(C)C)c1cc(Cl)ccc1NS(=O)(=O)C(F)(F)F [Compound 158] | – | – | 100 | C. felis LC50 [2]: 0.2 μg/cm^2 |
| CC/C(=N\OCC(C)C)c1cc(Cl)ccc1NS(=O)(=O)C(F)(F)F [Compound 159] | – | – | 100 | C. felis LC50 [2]: 0.2 μg/cm^2 |
| C/C(=N\OC1CCCCC1)c1cc(Cl)ccc1NS(=O)(=O)C(F)(F)F [Compound 161] | – | – | 100 | C. felis LC50 [2]: 0.2 μg/cm^2 |
| O=S(=O)(Nc1ccc(Cl)cc1-c1cc(-c2ccc(Cl)cc2)on1)C(F)(F)F [Compound 227] | – | – | – | mortality at 1.26 µg/cm2 [1, 5]: 7%; mortality at 1.26 µg/cm2 [1, 6]: 9%; IC99 (Haemonchus contortus; [7]): 0.1 µg/mL |
| O=S(=O)(Nc1ccc(Cl)cc1-c1cc(-c2ccc(F)cc2)on1)C(F)(F)F [Compound 228] | – | – | – | mortality at 1.26 µg/cm2 [1, 5]: 3%; mortality at 1.26 µg/cm2 [1, 6]: 3%; IC99 (Haemonchus contortus; [7]): 0.4 µg/mL |
| O=S(=O)(Nc1ccc(Cl)cc1-c1cc(-c2ccc(Cl)cc2Cl)on1)C(F)(F)F [Compound 229, N-{4-chloro-2-[5-(2,4-dichlorophenyl)isoxazol-3-yl]phenyl}trifluoromethanesulfonamide] | – | – | – | mortality at 1.26 µg/cm2 [1, 5]: 2%; mortality at 1.26 µg/cm2 [1, 6]: 7%; IC99 (Haemonchus contortus; [7]): 0.09 µg/mL |
| O=S(=O)(Nc1ccc(Cl)cc1-c1cc(-c2ccc(Cl)c(Cl)c2)on1)C(F)(F)F [Compound 230] | – | – | – | mortality at 1.26 µg/cm2 [1, 5]: 8%; mortality at 1.26 µg/cm2 [1, 6]: 15%; IC99 (Haemonchus contortus; [7]): 0.4 µg/mL |
| O=S(=O)(Nc1ccc(Cl)cc1-c1cc(-c2ccc(F)cc2F)on1)C(F)(F)F [Compound 231, N-{4-chloro-2-[5-(2,4-difluorophenyl)isoxazol-3-yl]phenyl}trifluoromethanesulfonamide] | – | – | – | mortality at 1.26 µg/cm2 [1, 6]: 7%; IC99 (Haemonchus contortus; [7]): 0.6 µg/mL |
